Columns and labels:
Assay in all cases: relative viability (nuclei count vs DMSO), 5 days (fraction); higher = more cells survive
[1] = compound: C1CC(C2=C(C1)C3=C(N2)C=CC(=C3)Cl)C(=O)N [Selisistat] + Cc1nc(NC(=O)N2CCC[C@H]2C(N)=O)sc1-c1ccnc(C(C)(C)C(F)(F)F)c1 [Alpelisib] (partner 2 µM)
How it was run: (§1)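 Values are medians from duplicate plates. Each reflects relative viability, defined as the nuclei count of treated wells over that of vehicle wells. Lung cancer cell lines in 1536-well plates were pin-tool dosed one day after seeding with one drug alone or with a fixed anchor-drug dose plus five library-drug doses (not always all listed) in √10 steps, then fixed, stained and imaged at 4× after 5 days.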

[2] = compound: C1CC(C2=C(C1)C3=C(N2)C=CC(=C3)Cl)C(=O)N [Selisistat] + Cc1nc(Nc2ncc(C(=O)Nc3c(C)cccc3Cl)s2)cc(N2CCN(CCO)CC2)n1 [Dasatinib] (partner 0.075 µM)
How it was run: as §1

[3] = compound: c1ccc2c(CCNc3ccc(Nc4ccncc4)cc3)c[nH]c2c1 [Serdemetan] + COc1cc2c(Oc3ccc(NC(=O)C4(C(=O)Nc5ccc(F)cc5)CC4)cc3F)ccnc2cc1OCCCN1CCOCC1 [Foretinib] (partner 0.25 µM)
How it was run: as §1

[4] = compound: c1ccc2c(CCNc3ccc(Nc4ccncc4)cc3)c[nH]c2c1 [Serdemetan] + N=C(N)NC(=N)NCCc1ccccc1 [Phenformin] (partner 250 µM)
How it was run: as §1

Cell Line	relative viability ([1]; first compound 0.4 µM)	relative viability ([1]; first compound 1.265 µM)	relative viability ([1]; first compound 4 µM)	relative viability ([1]; first compound 12.65 µM)	relative viability ([1]; first compound 40 µM)	relative viability ([2]; first compound 0.4 µM)	relative viability ([2]; first compound 1.265 µM)	relative viability ([2]; first compound 4 µM)	relative viability ([2]; first compound 12.65 µM)	relative viability ([2]; first compound 40 µM)	relative viability ([3]; first compound 0.04 µM)	relative viability ([3]; first compound 0.1265 µM)	relative viability ([3]; first compound 0.4 µM)	relative viability ([3]; first compound 1.265 µM)	relative viability ([3]; first compound 4 µM)	relative viability ([4]; first compound 0.04 µM)	relative viability ([4]; first compound 0.1265 µM)	relative viability ([4]; first compound 0.4 µM)	relative viability ([4]; first compound 1.265 µM)	relative viability ([4]; first compound 4 µM)
201T	1.04	0.986	0.981	1.03	1.02	0.588	0.551	0.581	0.528	0.534	1.14	1.13	1.02	0.636	0.73	0.435	0.451	0.432	0.353	0.432
A549	0.976	0.841	0.652	0.843	0.901						0.964	0.969	1.02	0.627	0.177	0.0903	0.163	0.209	0.0895	0.0987
A-427	1.08	1.09	1.02	1.14	1.12	0.744	0.657	0.584	0.752	0.772	1.01	0.933	1.1	0.778	0.469	0.29	0.279	0.273	0.189	0.198
ABC-1	0.977	0.972	0.872	1.15	0.921	0.553	0.469	0.589	0.588	0.509	0.855	1.08	0.766	0.604	0.418	0.229	0.235	0.197	0.204	0.224
BEN	0.953	0.986	0.818	0.9	0.884	0.308	0.269	0.233	0.353	0.295	0.631	0.682	0.794		0.609	0.283	0.252	0.271		0.267
CAL-12T	1.29	1.07	1.14	1.16	1.19	0.451	0.478	0.316	0.281	0.372	1.07	1.15	1.04	1.03	0.969	0.508	0.632	0.502	0.562	0.561
COR-L23	0.921	0.872	0.793	0.767	0.766	0.523	0.583	0.579	0.529	0.494	0.989	1.01	1.07	0.847	0.843	0.448	0.468	0.427	0.414	0.42
COR-L 105	0.888	0.929	1.03	0.964	0.846	0.339	0.357		0.297	0.32	0.979	0.866	0.9	0.839	0.772	0.507	0.418	0.443	0.492	0.431
Calu-6	1.02	0.896	1.01	0.841	0.873						0.866	0.819	0.839	0.567	0.472					
ChaGo-K-1						0.562	0.551	0.563	0.539	0.592	0.9	0.703	0.566	0.335	0.296	0.48	0.484	0.458	0.216	0.25
EBC-1	0.982	0.891	0.806	0.807	0.911						0.12	0.123	0.107	0.124	0.129					
EKVX	0.949	0.855	0.723	0.853	0.878	0.575	0.509		0.409	0.392	1	0.82	0.424		0.858	0.225	0.243	0.14		0.241
EMC-BAC-2	0.693	0.708	0.674	0.697	0.777	0.355	0.367	0.378	0.317	0.315	0.969	1.02	1.04	0.809	0.676	0.527	0.543	0.514	0.382	0.494
EPLC-272H	1.02	0.853		0.977	0.885	0.352	0.33		0.369	0.381	0.881	0.684	0.305	0.459	0.477	0.344	0.295	0.301	0.278	0.294
H3255	0.724	0.662	0.725	0.62	0.786	0.385	0.369	0.309	0.331	0.428	1.02	0.845	0.833	0.727	0.708	0.348	0.387	0.358	0.351	0.397
HARA	0.881	0.868	0.793	0.846	0.842	0.25	0.299	0.202	0.166	0.264	0.84	0.903	0.871	0.585	0.452	0.466	0.457	0.499	0.257	0.304
HCC-15	1.04	0.9		0.775	0.878	0.716	0.625		0.594	0.613	1	0.993	0.944	0.854	0.707	0.428	0.459	0.457	0.337	0.367
HCC-44	0.86	0.874	0.853	0.846	0.9											0.21	0.236	0.21	0.136	0.213
HCC-78	0.439	0.367	0.349	0.34	0.278	0.486	0.628	0.293	0.421	0.414	0.531	0.524	0.463	0.422	0.426	0.612	0.581	0.595	0.581	0.516

— the supplement of paper PMC10307832
